Data reported in publication PMC12446476 (Nature Communications, 2025).

Columns and labels:
[1] = tested on: human lymphocytes; assay: In vitro micronucleus test; type: cell-based
[2] = tested on: N. gonorrhoeae; assay: In vitro time-kill assay; type: cell-based, Neisseria gonorrhoeae; details: for mean time to reach bactericidal activity: ten isolates
Source text: The 2024 WHO N. gonorrhoeae reference strains were used for quality control. Only whole MIC doubling dilutions are reported. Clinical breakpoints or the epidemiological cutoff (ECOFF, to indicate azithromycin resistance) from EUCAST (v14.0, https://www.eucast.org/clinical_breakpoints) were used to classify isolates as antimicrobial susceptible or resistant. […] Two times the standard inoculum defined by CLSI was used to establish consistent growth in untreated control samples for some strains. In vitro time-kill assays were performed according to CLSI guidelines[65] using Columbia Broth (BD Difco) supplemented with 1% IsoVitaleX Enrichment (BD). Viable bacterial counts were generated by plating 10-fold serially diluted samples on GC agar plates containing 1% IsoVitaleX Enrichment (BD).

Cc1c(CN(C)C(=O)/C=C/c2cnc3c(c2)N[C@H](C)[C@H](OP(=O)([O-])[O-])C(=O)N3)oc2ccccc12.[Na+].[Na+] [Debio 1453 P]
in vitro micronucleus test result [1]: negative

Cc1c(CN(C)C(=O)/C=C/c2cnc3c(c2)N[C@H](C)[C@H](O)C(=O)N3)oc2ccccc12 [Debio 1453]
mean time to reach bactericidal activity ([2]; 2× MIC): 10 h
mean time to reach bactericidal activity ([2]; 4× MIC): 8.5 h
mean time to reach bactericidal activity ([2]; 8× MIC): 8 h
mean time to reach bactericidal activity ([2]; 16× MIC): 8 h
Log10CFU/ml (time kill) ([2]; 6804, 2X MIC, 0 hr): 6.11 Log10CFU/ml
Log10CFU/ml (time kill) ([2]; 6804, 2X MIC, 1 hr): 6.05 Log10CFU/ml
Log10CFU/ml (time kill) ([2]; 6804, 2X MIC, 3 hr): 5.70 Log10CFU/ml
Log10CFU/ml (time kill) ([2]; 6804, 2X MIC, 6 hr): 5.13 Log10CFU/ml
Log10CFU/ml (time kill) ([2]; 6804, 2X MIC, 10 hr): 4.59 Log10CFU/ml
Log10CFU/ml (time kill) ([2]; 6804, 2X MIC, 24 hr): 1.95 Log10CFU/ml
Log10CFU/ml (time kill) ([2]; 6804, 4X MIC, 0 hr): 6.04 Log10CFU/ml
Log10CFU/ml (time kill) ([2]; 6804, 4X MIC, 1 hr): 6.04 Log10CFU/ml
Log10CFU/ml (time kill) ([2]; 6804, 4X MIC, 3 hr): 5.43 Log10CFU/ml
Log10CFU/ml (time kill) ([2]; 6804, 4X MIC, 6 hr): 4.53 Log10CFU/ml
Log10CFU/ml (time kill) ([2]; 6804, 4X MIC, 10 hr): 3.72 Log10CFU/ml
Log10CFU/ml (time kill) ([2]; 6804, 4X MIC, 24 hr): 1.95 Log10CFU/ml
Log10CFU/ml (time kill) ([2]; 6804, 8X MIC, 0 hr): 6.21 Log10CFU/ml
Log10CFU/ml (time kill) ([2]; 6804, 8X MIC, 1 hr): 6.03 Log10CFU/ml
Log10CFU/ml (time kill) ([2]; 6804, 8X MIC, 3 hr): 5.13 Log10CFU/ml
Log10CFU/ml (time kill) ([2]; 6804, 8X MIC, 6 hr): 4.30 Log10CFU/ml
Log10CFU/ml (time kill) ([2]; 6804, 8X MIC, 10 hr): 3.41 Log10CFU/ml
Log10CFU/ml (time kill) ([2]; 6804, 8X MIC, 24 hr): 1.95 Log10CFU/ml
Log10CFU/ml (time kill) ([2]; 6804, 16X MIC, 0 hr): 6.00 Log10CFU/ml
Log10CFU/ml (time kill) ([2]; 6804, 16X MIC, 1 hr): 6.07 Log10CFU/ml
Log10CFU/ml (time kill) ([2]; 6804, 16X MIC, 3 hr): 5.20 Log10CFU/ml
Log10CFU/ml (time kill) ([2]; 6804, 16X MIC, 6 hr): 4.67 Log10CFU/ml
Log10CFU/ml (time kill) ([2]; 6804, 16X MIC, 10 hr): 3.70 Log10CFU/ml
Log10CFU/ml (time kill) ([2]; 6804, 16X MIC, 24 hr): 1.95 Log10CFU/ml
Log10CFU/ml (time kill) ([2]; AR Bank0175, 2X MIC, 0 hr): 6.11 Log10CFU/ml
Log10CFU/ml (time kill) ([2]; AR Bank0175, 2X MIC, 1 hr): 5.92 Log10CFU/ml
Log10CFU/ml (time kill) ([2]; AR Bank0175, 2X MIC, 3 hr): 5.61 Log10CFU/ml
Log10CFU/ml (time kill) ([2]; AR Bank0175, 2X MIC, 6 hr): 4.46 Log10CFU/ml
Log10CFU/ml (time kill) ([2]; AR Bank0175, 2X MIC, 10 hr): 3.38 Log10CFU/ml
Log10CFU/ml (time kill) ([2]; AR Bank0175, 2X MIC, 24 hr): 1.95 Log10CFU/ml
Log10CFU/ml (time kill) ([2]; AR Bank0175, 4X MIC, 0 hr): 6.15 Log10CFU/ml
Log10CFU/ml (time kill) ([2]; AR Bank0175, 4X MIC, 1 hr): 5.59 Log10CFU/ml
Log10CFU/ml (time kill) ([2]; AR Bank0175, 4X MIC, 3 hr): 5.22 Log10CFU/ml
Log10CFU/ml (time kill) ([2]; AR Bank0175, 4X MIC, 6 hr): 4.45 Log10CFU/ml
Log10CFU/ml (time kill) ([2]; AR Bank0175, 4X MIC, 10 hr): 3.28 Log10CFU/ml
Log10CFU/ml (time kill) ([2]; AR Bank0175, 4X MIC, 24 hr): 1.95 Log10CFU/ml
Log10CFU/ml (time kill) ([2]; AR Bank0175, 8X MIC, 0 hr): 5.85 Log10CFU/ml
Log10CFU/ml (time kill) ([2]; AR Bank0175, 8X MIC, 1 hr): 5.40 Log10CFU/ml
Log10CFU/ml (time kill) ([2]; AR Bank0175, 8X MIC, 3 hr): 5.08 Log10CFU/ml
Log10CFU/ml (time kill) ([2]; AR Bank0175, 8X MIC, 6 hr): 3.85 Log10CFU/ml
Log10CFU/ml (time kill) ([2]; AR Bank0175, 8X MIC, 10 hr): 2.95 Log10CFU/ml
Log10CFU/ml (time kill) ([2]; AR Bank0175, 8X MIC, 24 hr): 1.95 Log10CFU/ml
Log10CFU/ml (time kill) ([2]; AR Bank0175, 16X MIC, 0 hr): 6.08 Log10CFU/ml
Log10CFU/ml (time kill) ([2]; AR Bank0175, 16X MIC, 1 hr): 5.41 Log10CFU/ml
Log10CFU/ml (time kill) ([2]; AR Bank0175, 16X MIC, 3 hr): 4.92 Log10CFU/ml
Log10CFU/ml (time kill) ([2]; AR Bank0175, 16X MIC, 6 hr): 3.81 Log10CFU/ml
Log10CFU/ml (time kill) ([2]; AR Bank0175, 16X MIC, 10 hr): 3.23 Log10CFU/ml
Log10CFU/ml (time kill) ([2]; AR Bank0175, 16X MIC, 24 hr): 1.95 Log10CFU/ml
Log10CFU/ml (time kill) ([2]; AR Bank0179, 2X MIC, 0 hr): 5.66 Log10CFU/ml
Log10CFU/ml (time kill) ([2]; AR Bank0179, 2X MIC, 1 hr): 5.63 Log10CFU/ml
Log10CFU/ml (time kill) ([2]; AR Bank0179, 2X MIC, 3 hr): 5.09 Log10CFU/ml
Log10CFU/ml (time kill) ([2]; AR Bank0179, 2X MIC, 6 hr): 4.63 Log10CFU/ml
Log10CFU/ml (time kill) ([2]; AR Bank0179, 2X MIC, 10 hr): 2.00 Log10CFU/ml
Log10CFU/ml (time kill) ([2]; AR Bank0179, 2X MIC, 24 hr): 1.95 Log10CFU/ml
Log10CFU/ml (time kill) ([2]; AR Bank0179, 4X MIC, 0 hr): 5.46 Log10CFU/ml
Log10CFU/ml (time kill) ([2]; AR Bank0179, 4X MIC, 1 hr): 5.53 Log10CFU/ml
Log10CFU/ml (time kill) ([2]; AR Bank0179, 4X MIC, 3 hr): 4.84 Log10CFU/ml
Log10CFU/ml (time kill) ([2]; AR Bank0179, 4X MIC, 6 hr): 3.98 Log10CFU/ml
Log10CFU/ml (time kill) ([2]; AR Bank0179, 4X MIC, 10 hr): 1.95 Log10CFU/ml
Log10CFU/ml (time kill) ([2]; AR Bank0179, 4X MIC, 24 hr): 1.95 Log10CFU/ml
Log10CFU/ml (time kill) ([2]; AR Bank0179, 8X MIC, 0 hr): 5.74 Log10CFU/ml
Log10CFU/ml (time kill) ([2]; AR Bank0179, 8X MIC, 1 hr): 5.30 Log10CFU/ml
Log10CFU/ml (time kill) ([2]; AR Bank0179, 8X MIC, 3 hr): 4.73 Log10CFU/ml
Log10CFU/ml (time kill) ([2]; AR Bank0179, 8X MIC, 6 hr): 3.88 Log10CFU/ml
Log10CFU/ml (time kill) ([2]; AR Bank0179, 8X MIC, 10 hr): 1.95 Log10CFU/ml
Log10CFU/ml (time kill) ([2]; AR Bank0179, 8X MIC, 24 hr): 1.95 Log10CFU/ml
Log10CFU/ml (time kill) ([2]; AR Bank0179, 16X MIC, 0 hr): 5.69 Log10CFU/ml
Log10CFU/ml (time kill) ([2]; AR Bank0179, 16X MIC, 1 hr): 5.23 Log10CFU/ml
Log10CFU/ml (time kill) ([2]; AR Bank0179, 16X MIC, 3 hr): 4.75 Log10CFU/ml
Log10CFU/ml (time kill) ([2]; AR Bank0179, 16X MIC, 6 hr): 3.67 Log10CFU/ml
Log10CFU/ml (time kill) ([2]; AR Bank0179, 16X MIC, 10 hr): 1.95 Log10CFU/ml
Log10CFU/ml (time kill) ([2]; AR Bank0179, 16X MIC, 24 hr): 1.95 Log10CFU/ml
Log10CFU/ml (time kill) ([2]; ATCC 49226, 2X MIC, 0 hr): 6.10 Log10CFU/ml
Log10CFU/ml (time kill) ([2]; ATCC 49226, 2X MIC, 1 hr): 5.92 Log10CFU/ml
Log10CFU/ml (time kill) ([2]; ATCC 49226, 2X MIC, 3 hr): 5.64 Log10CFU/ml
Log10CFU/ml (time kill) ([2]; ATCC 49226, 2X MIC, 6 hr): 4.51 Log10CFU/ml
Log10CFU/ml (time kill) ([2]; ATCC 49226, 2X MIC, 10 hr): 2.60 Log10CFU/ml
Log10CFU/ml (time kill) ([2]; ATCC 49226, 2X MIC, 24 hr): 1.95 Log10CFU/ml
Log10CFU/ml (time kill) ([2]; ATCC 49226, 4X MIC, 0 hr): 6.07 Log10CFU/ml
Log10CFU/ml (time kill) ([2]; WHO V, 2X MIC, 0 hr): 5.66 Log10CFU/ml
Log10CFU/ml (time kill) ([2]; WHO V, 2X MIC, 1 hr): 5.58 Log10CFU/ml
Log10CFU/ml (time kill) ([2]; WHO V, 2X MIC, 3 hr): 4.90 Log10CFU/ml
Log10CFU/ml (time kill) ([2]; WHO V, 2X MIC, 6 hr): 4.14 Log10CFU/ml
Log10CFU/ml (time kill) ([2]; WHO V, 2X MIC, 10 hr): 3.53 Log10CFU/ml
Log10CFU/ml (time kill) ([2]; WHO V, 2X MIC, 24 hr): 1.95 Log10CFU/ml
Log10CFU/ml (time kill) ([2]; WHO V, 4X MIC, 0 hr): 5.59 Log10CFU/ml
Log10CFU/ml (time kill) ([2]; WHO V, 4X MIC, 1 hr): 5.34 Log10CFU/ml
Log10CFU/ml (time kill) ([2]; WHO V, 4X MIC, 3 hr): 4.37 Log10CFU/ml
Log10CFU/ml (time kill) ([2]; WHO V, 4X MIC, 6 hr): 4.03 Log10CFU/ml
Log10CFU/ml (time kill) ([2]; WHO V, 4X MIC, 10 hr): 2.00 Log10CFU/ml
Log10CFU/ml (time kill) ([2]; WHO V, 4X MIC, 24 hr): 1.95 Log10CFU/ml
Log10CFU/ml (time kill) ([2]; WHO V, 8X MIC, 0 hr): 5.60 Log10CFU/ml
Log10CFU/ml (time kill) ([2]; WHO V, 8X MIC, 1 hr): 4.90 Log10CFU/ml
Log10CFU/ml (time kill) ([2]; WHO V, 8X MIC, 3 hr): 4.34 Log10CFU/ml
Log10CFU/ml (time kill) ([2]; WHO V, 8X MIC, 6 hr): 4.03 Log10CFU/ml
Log10CFU/ml (time kill) ([2]; WHO V, 8X MIC, 10 hr): 1.95 Log10CFU/ml
Log10CFU/ml (time kill) ([2]; WHO V, 8X MIC, 24 hr): 1.95 Log10CFU/ml
Log10CFU/ml (time kill) ([2]; WHO V, 16X MIC, 0 hr): 5.81 Log10CFU/ml
Log10CFU/ml (time kill) ([2]; WHO V, 16X MIC, 1 hr): 5.00 Log10CFU/ml
Log10CFU/ml (time kill) ([2]; WHO V, 16X MIC, 3 hr): 4.27 Log10CFU/ml
reduction in viable CFU counts ([2]; within 24 h, all concentrations tested, as low as 2× MIC, 10 isolates): ≥ 3 log10
